Measurements published in patent US20250262333A1, “Construct for Transferring Foreign Substance, and Use Thereof” (TOAGOSEI CO., LTD., priority 2022, published 2025).
FAM = 5(6)-carboxyfluorescein (C21H12O7), a fluorescent dye

System: HeLa cells
Test: Evaluation of cell membrane penetration by flow cytometry
Assay type: cell-based, human
Conditions: 10 μM additive, 0.5% DMSO, 20 hours at 37° C., 5% CO2, FAM fluorescence, detector FL2
Description: As the eukaryotic cells, HeLa cells (established cell strain derived from a human cervical cancer cell) were used and the cell membrane penetration of the peptides 1 to 6 was analyzed. In Examples 1 to 6, the prepared samples 1 to 6 were used, respectively, and in Example 7, the FAM solution was used.
The HeLa cell was cultured in 10% fetal bovine serum (FBS)-containing Dulbecco's modified Eagle's medium (DMEM (Cat No. 043-30085, manufactured by FUJIFILM Wako Pure Chemical Corporation)), which is a normal culture medium.
The HeLa cell that adhered to a culture plate was cleaned with PBS and then, a 0.25%-trypsin/EDTA solution was added thereto, and incubation was performed for three minutes at 37° C. After the incubation, the aforementioned 10% FBS-containing DMEM was added to deactivate trypsin and then, five-minute centrifugal separation was performed at 150×g to precipitate the cells. After the supernatant generated by the centrifugal separation was removed, the 10% FBS-containing DMEM was added to the precipitate (cell pellet) to prepare a cell suspension of about 2×10^5 cells/mL. The cell suspension was added by 1 mL to a well of a commercially available six-hole (well) plate (manufactured by AGC TECHNO GLASS Co., Ltd.) so as to seed the cell (about 2×10^5 cells/well). In addition, the 2 mM sample solution 1 was diluted with the 10% FBS-containing DMEM to prepare the sample solution 1 in which the concentration of the sample 1 was 20 μM. Then, 1 mL of the 20 μM sample solution 1 was added to the well (that is, so that the concentration of the sample 1 became 10 μM and the DMSO concentration became 0.5% in the culture solution in the well). After that, the cell was incubated for 20 hours at 37° C. under a 5% CO2 condition.
After the 20-hour incubation, the culture supernatant was removed from the well and the cells in the well were cleaned twice with 1 mL of PBS. Next, 200 μL of the 0.25% trypsin/EDTA solution was added to the well and the incubation was performed for three minutes at 37° C. After the incubation, 400 μL of the 10% FBS-containing DMEM was added to the well to deactivate the trypsin. Subsequently, the cell suspension in the well was transferred to a tube and the cells were collected. After that, 600 μL of PBS was added further to the well to clean the well. Then, PBS in the well was transferred to the tube, so that the cells remaining in the well were collected in the tube. This tube was subjected to five-minute centrifugal separation at 4° C. under a condition of 210×g. After the centrifugal separation, the supernatant was removed and the precipitate (cell pellet) was suspended (cleaned) with 1 mL of PBS, which was followed by the centrifugal separation under the same condition as that described above. After this operation was repeated twice, the supernatant was removed and thus, the cells (cell pellet) cultured in a culture medium containing the sample 1 were obtained.
Regarding the obtained cells (cell pellet), the cell membrane penetration of the sample 1 was analyzed using a flow cytometer. As the flow cytometer, On-Chip Flowcytometer (manufactured by On-Chip Biotechnologies Co., LTD.) was used.
For such an analysis, the obtained cell pellet was suspended with 50 μL of PBS. To this suspension, additionally, 50 μL of 2× sample buffer for the flow cytometer was added so as to prepare a cell suspension for analysis.
Using the aforementioned flow cytometer, gating based on forward scatter (FSC) and side scatter (SSC) was performed to set a gate about a cell group to be analyzed, and the fluorescence intensity was measured about the cell group in this gate. Note that the analysis was performed so that the cell group contained at least 10000 or more cells. The fluorescence intensity was measured using a fluorescence detector FL2 of the flow cytometer (optimum detection wavelength around 543 nm) capable of detecting the fluorescence wavelength of FAM. […]

Substance	MFI (mean fluorescence intensity)
Ac-RSRKYTSWYVALKK-FAM [Example 6]	11.1
Ac-RSRKYTSWYVALKR-FAM (Ac-RSRKYTSWYVALKR-{FAM}) [Example 2, reference compound]	13.4
Ac-RSKKYTSWYVALKR-FAM (Ac-RSKKYTSWYVALKR-{FAM}) [Example 5]	12.8
Ac-RSRKYTSWYVALKRWPC-FAM (Ac-RSRKYTSWYVALKRWPC-{FAM}) [Example 1]	50.4
Ac-KSKKYTSWYVALKR-FAM (Ac-KSKKYTSWYVALKR-{FAM}) [Example 3]	14.6
Ac-KSRKYTSWYVALKR-FAM (Ac-KSRKYTSWYVALKR-{FAM}) [Example 4]	13.2
5 (6)-carboxyfluorescein [Example 7, reference compound]	10.5

Same assay, conditions: 10 μM, 20 hours, compared with Example 2 (construct including the peptide 2)

Substance	cell membrane penetration / value of MFI, comparison in words
Ac-RSRKYTSWYVALKRWPC-FAM (Ac-RSRKYTSWYVALKRWPC-{FAM}) [Example 1]	remarkably higher
